One data set in a line: Microsomal stability. Format: in vitro ADME, mouse. Particulars: 1 μM; for Metabolic stability in mouse liver microsomes: incubation for 1 h. As for the experimental part:
For microsomal stability, individual ginsenoside (1 μM each) was reconstituted in 100 mM potassium phosphate buffer (pH 7.4) containing 0.25 mg of mouse liver microsomes and preincubated for 5 min at 37 °C. This reaction was initiated by adding an NADPH-generating system (1.3 mM β-NADP, 3.3 mM glucose-6-phosphate, 3.3 mM MgCl2, and 1.0 unit/mL glucose-6-phosphate dehydrogenase; purchased form Corning Life Sciences) (to make final volume of 100 μL). The reaction mixture was incubated for 1 h at 37 °C in a shaking water bath and the reaction was quenched by addition of addition of an ice-cold IS solution (200 μL; 0.05 ng/mL berberine in methanol) to 30 μL of the reaction samples.
(§1) Subsequent protocols were identical to the method described above except for the use of ice-cold IS solution (200 μL; 0.05 ng/mL berberine in acetonitrile) to 30 μL of the reaction samples.
Plasma and microsomal stability was determined from the percent of remaining concentration of ginsenosides or marker compounds compared to their initial concentration.
For orientation: Liver microsomes are vesicles of endoplasmic reticulum, rich in cytochrome P450 enzymes.

Data set [1] is described as follows: Recovery of ginsenosides from urine and feces for 48 h after RGE, amoxicillin with or without LAB. The following applies: feces 48 h after single oral RGE 2 g/kg; Amoxicillin + LAB vs amoxicillin.
Procedure: (§2) Mice received amoxicillin (n = 12, 20 mg/kg, dissolved in water at 2 mL/kg, twice daily) for 3 days via oral gavage. From the 4th day, mice from the LAB + amoxicillin treatment group received LAB (2 g/kg suspended in water at 2 mL/kg, once daily) for 7 days via oral gavage. Mice from the amoxicillin treatment group received water (2 mL/kg, once daily) for 7 days via oral gavage.
Data set [2] deals with lactic acid bacteria (LAB). Nature of the data set: In vitro RGE fermentation with LAB. The following applies: for Alteration of ginsenoside by fermentation of RGE with LAB: 7 days incubation.
Data set [3] in a line: Pharmacokinetics of ginsenosides after single oral RGE after amoxicillin with or without repeated LAB treatment. Particulars: single oral RGE 2 g/kg; for AUC: AUC 0 to 48 h.
Procedure: as §2
Blood sampling was performed using a sparse sampling method via the right or left retro-orbital vein under isoflurane anesthesia at 0, 2, 4, and 8 h after the RGE administration through the heparinized capillary tube. […] After centrifugation of the blood samples at 10,000× g for 1 min, 30 μL aliquots of plasma were stored at −80 °C until the analysis of the ginsenosides. Subsequent protocols were identical to the amoxicillin treated group.
Pharmacokinetic parameters were calculated using WinNonlin (version 5.1, Pharsight, Mountain View, CA, USA) by a non-compartmental analysis.
The test system of data set [4] is lactic acid bacteria (LAB). The data set can be described thus: Incubation of single ginsenoside with LAB (formation rate of metabolite ginsenoside). The class given is in vitro ADME. Particulars: 7 days, 37 °C, MRS broth. The protocol:
To compare the involvement of LAB on individual ginsenoside, an aliquot (10 μL) of each ginsenoside stock solution (10 mM in methanol) was mixed with autoclaved MRS broth (550 mg/10 mL in distilled water) and added 2 g of LAB (contained 1 billion CFU). Then, the mixture was incubated for 7 days in a shaking incubator at 37 °C and 300 rpm. For the analysis of ginsenosides, 0.2 mL aliquot of incubation mixture was collected every 24 h for 7 days. The incubation medium was diluted 100-fold with distilled water and stored at −80 °C. For the ginsenoside analysis, 200 μL of an IS solution (0.05 ng/mL berberine in methanol) was added to 30 μL of 100-fold diluted samples.

The nature of data set [5]: Plasma protein binding by rapid equilibrium dialysis. The class given is in vitro ADME. Particulars: 1 μM, 4 h at 37 °C, mouse plasma. The protocol: Briefly, 100 μL of mouse plasma containing 1 μM of each ginsenoside was added to the semipermeable membrane’s inner sample chamber (molecular weight cut-off 8000 Da), and 300 μL of PBS was added to the outer buffer chamber. The samples were then incubated for 4 h at 37 °C on a shaking incubator at 300 rpm, followed by collecting 30-μL aliquots from both the sample and buffer chambers.
as §1
Plasma protein binding was calculated using the following equation [31, 60]: Plasma protein binding=(1−Drug concentration in buffer chamber/Drug concentration in plasma sample chamber)×100(%).
In general terms: In equilibrium dialysis free small molecules cross a membrane that holds back macromolecules.

On the set-up of data set [6]: method as in PMID 32023909. The following applies: cited from earlier work.
Data set [7] is described as follows: Pharmacokinetics of ginsenosides after single oral RGE with or without amoxicillin treatment. The class given is in vivo, mice. Particulars: single oral RGE 2 g/kg; for AUC: AUC 0 to 48 h. As for the experimental part:
Male ICR mice (7-weeks-year-old, 30–35 g) were purchased from Samtako Co. (Osan, Kyunggi-do, Korea). Animals were acclimatized for 1 week in an animal facility at Kyungpook National University. Food and water were available ad libitum.
Before blood sampling, mice were anesthetized using isoflurane (isoflurane vaporizer to 2% with oxygen flow at 0.8 L/min) for 5 min.

Data set [8] can be described thus: Recovery of ginsenosides from urine and feces for 48 h after RGE, amoxicillin vs control. The following applies: for Fecal recovery, change by the amoxicillin treatment: feces 48 h after single oral RGE 2 g/kg, vs control; for Ginsenosides identified in urine: urine 48 h after single oral RGE 2 g/kg.
Procedure: Aliquots (200 μL) of an IS (0.05 ng/mL berberine in methanol) were added to 30 μL of plasma or urine samples. Aliquots (600 μL) of an IS methanol solution containing 0.05 ng/mL berberine were added to 100 μL of 10% feces homogenate samples. […] After centrifugation, 200 μL of the supernatant was transferred to a clean tube and dried under a nitrogen stream at 40 °C. The residue was reconstituted using 100 μL of 70% methanol supplemented with 0.1% formic acid, and a 10-μL aliquot was injected into the LC–MS/MS system.
[9] abbreviates: Amoxicillin 3 days pretreatment.
The mark [10] stands for this setting: Amoxicillin 3 days then water 7 days.
[11] abbreviates: Amoxicillin + LAB (LAB 2 g/kg once daily 7 days).

The structures appear in SMILES notation.

Take `CC(C)=CCC[C@](C)(O)[C@H]1CC[C@]2(C)[C@@H]1[C@H](O)C[C@@H]1[C@@]3(C)CC[C@H](O[C@@H]4O[C@H](CO)[C@@H](O)[C@H](O)[C@H]4O)C(C)(C)[C@@H]3CC[C@]12C` [GRh2]: the “Metabolic stability in mouse liver microsomes” value in the data set “Microsomal stability” is recorded as “unstable”. Further, the “Fecal recovery, change by LAB treatment” value in data set [1] was “remained similar”. Also, the “Alteration of ginsenoside by fermentation of RGE with LAB” value (“Alteration of ginsenoside” for short) in [2] is “remained unchanged”. Moreover, in data set [3], the “Detection in mouse plasma following repeated LAB administration in addition to amoxicillin” value (“Detection” for short) is reported as “not found”. Besides, the “Metabolite formation on incubation of single ginsenoside with LAB” value (from here on “Metabolite formation on incubation”) in data set [4] is on record as “the highest among the ginsenoside formation rate”.
In the case of `CC(C)=CCC[C@](C)(O[C@@H]1O[C@H](CO)[C@@H](O)[C@H](O)[C@H]1O)[C@H]1CC[C@]2(C)[C@@H]1[C@H](O)C[C@@H]1[C@@]3(C)CC[C@H](O)C(C)(C)[C@@H]3[C@@H](O)C[C@]12C` [GF1], the “Fecal recovery, change by LAB treatment” value in data set [1] is given as “remained similar”. Further, in data set [2], the “Alteration of ginsenoside” value was “most significant decrease”. In addition, in data set [5], the Plasma protein binding result was “over 99%”.
A word on the Cmax: it is the maximum level reached in the sampled fluid or tissue. One may read the MRT as a mean duration of stay, worked out from the concentration-time curve. In general, Tmax refers to the time from dosing to the highest level. As a reminder, the AUC is concentration integrated over time. As to `CC(C)=CCC[C@](C)(O[C@@H]1O[C@H](CO[C@@H]2O[C@@H](CO)[C@H](O)[C@H]2O)[C@@H](O)[C@H](O)[C@H]1O)[C@H]1CC[C@]2(C)[C@@H]1[C@H](O)C[C@@H]1[C@@]3(C)CC[C@H](O[C@@H]4O[C@H](CO)[C@@H](O)[C@H](O)[C@H]4O[C@@H]4O[C@H](CO)[C@@H](O)[C@H](O)[C@H]4O)C(C)(C)[C@@H]3CC[C@]12C` [GRc], the “Fecal recovery, change by LAB treatment” value in data set [1] is given as “significantly decreased”. Also, the “Alteration of ginsenoside” value in data set [2] is listed as “most significant decrease”. Besides, the “Ratio of liver AUC to plasma AUC” value in [6] is reported as under 0.2. In [7] (setting [9]), the maximum concentration (Cmax) is given as 14.8 ± 6.6 ng/mL, the Half-Life amounted to 25.1 ± 9.9 h, the MRT was determined as 21.9 ± 1.5 h and the Tmax was found to be 13.3 ± 9.2 h. The AUC in [7] (setting [9]) was 571.7 ± 276 ng·h/mL. Moreover, in [7] (Control, plasma), the Cmax is 17.2 ± 3.1 ng/mL, the Half-Life stood at 22.8 ± 6.7 h, the MRT was found to be 19.9 ± 1.7 h and the Tmax is given as 8.0 ± 0.0 h. The AUC in [7] (Control, plasma, n = 3) came to 508.6 ± 109 ng·h/mL. Moreover, in data set [7], the “Plasma concentrations, amoxicillin treatment compared to the control group” value was “not significantly affected”. In addition, in [3] (setting [10]), the peak concentration (Cmax) turned out to be 13.2 ± 6.6 ng/mL, the Half-Life amounted to 20.2 ± 1.8 h, the mean residence time (MRT) was determined as 20.6 ± 1.2 h and the Tmax amounted to 4.7 ± 3.1 h. Moreover, the exposure (AUC) in [3] (setting [10]) came out at 448.2 ± 268.1 ng·h/mL. In addition, in data set [3] (setting [11]), the exposure (AUC) turned out to be 524.4 ± 146.6 ng·h/mL. In addition, in data set [3] (Amoxicillin + LAB), the Cmax is recorded as 18.3 ± 4.3 ng/mL, the Half-Life is listed as 24.1 ± 2.4 h, the MRT amounted to 19.0 ± 1.3 h and the time to peak (Tmax) is 8.0 ± 0.0 h. In data set [3], the “Detection” value is reported as “detected” and the “Plasma exposure / pharmacokinetic parameters, LAB treatment compared with amoxicillin group” value is “not different”. In addition, the “Metabolite formation on incubation” value in data set [4] is on record as “produced GRg3 with the highest formation rate”. Further, in data set [8], the “Fecal recovery, change by the amoxicillin treatment” value is reported as “increased” and the “Ginsenosides identified in urine” value is recorded as “identified in urine”.
On to `CC(C)=CCC[C@](C)(O)[C@H]1CC[C@]2(C)[C@@H]1[C@H](O)C[C@@H]1[C@@]3(C)CC[C@H](O)C(C)(C)[C@@H]3[C@@H](O[C@@H]3O[C@H](CO)[C@@H](O)[C@H](O)[C@H]3O)C[C@]12C` [GRh1, ginsenoside Rh1], for which, in the data set “Microsomal stability”, the “Metabolic stability in mouse liver microsomes” value was “unstable”. The “Fecal recovery, change by LAB treatment” value in [1] is recorded as “remained similar”. The “Increase of ginsenoside by fermentation of RGE with LAB” value in [2] (7 days, relative to the first day) is reported as “about 30%”. Besides, the “Detection” value in data set [3] is on record as “not found”.
For `CC(C)=CCC[C@](C)(O[C@@H]1O[C@H](CO[C@@H]2OC[C@H](O)[C@H](O)[C@H]2O)[C@@H](O)[C@H](O)[C@H]1O)[C@H]1CC[C@]2(C)[C@@H]1[C@H](O)C[C@@H]1[C@@]3(C)CC[C@H](O[C@@H]4O[C@H](CO)[C@@H](O)[C@H](O)[C@H]4O[C@@H]4O[C@H](CO)[C@@H](O)[C@H](O)[C@H]4O)C(C)(C)[C@@H]3CC[C@]12C` [GRb2], the “Fecal recovery, change by LAB treatment” value in [1] is given as “significantly decreased”. Further, in data set [2], the “Alteration of ginsenoside” value is on record as “most significant decrease”. In addition, the “Ratio of liver AUC to plasma AUC” value in [6] was under 0.2. For the same compound, in data set [7] (setting [9]), the highest concentration (Cmax) is reported as 10.3 ± 4.6 ng/mL, the Half-Life amounted to 25.1 ± 2.7 h, the mean residence time (MRT) was 21.4 ± 1.6 h and the Tmax stood at 13.3 ± 9.2 h. Further, the AUC in data set [7] (setting [9]) is 391.5 ± 192 ng·h/mL. For the same compound, in [7] (Control, plasma), the Cmax amounted to 12.5 ± 2.1 ng/mL, the Half-Life turned out to be 24.6 ± 6.7 h, the MRT came to 19.4 ± 1.6 h and the Tmax turned out to be 8.0 ± 0.0 h. The area under the curve (AUC) in [7] (Control, plasma, n = 3) came to 361.4 ± 74.3 ng·h/mL. In addition, in data set [7], the “Plasma concentrations, amoxicillin treatment compared to the control group” value is listed as “not significantly affected”. Besides, in data set [3] (setting [10]), the Cmax came to 10.9 ± 5.2 ng/mL, the Half-Life is given as 19.2 ± 2.3 h, the mean residence time (MRT) worked out at 20.2 ± 1.7 h and the time of peak concentration (Tmax) is 4.0 ± 0.0 h. The compound also had an AUC in [3] (setting [10]) of 385.9 ± 243.6 ng·h/mL. Besides, the AUC in data set [3] (setting [11]) stood at 419.2 ± 108.6 ng·h/mL. Also, in [3] (Amoxicillin + LAB), the Cmax is recorded as 15.1 ± 3.4 ng/mL, the Half-Life is reported as 21.6 ± 1.7 h, the MRT is listed as 18.1 ± 0.9 h and the time of peak concentration (Tmax) was 8.0 ± 0.0 h. Further, in data set [3], the “Detection” value is recorded as “detected” and the “Plasma exposure / pharmacokinetic parameters, LAB treatment compared with amoxicillin group” value is “not different”. Besides, the “Metabolite formation on incubation” value in data set [4] was “produced GRg3 with the highest formation rate”. In data set [8], the “Fecal recovery, change by the amoxicillin treatment” value is “increased” and the “Ginsenosides identified in urine” value is “identified in urine”.
Regarding `CN(C)C(=N)N=C(N)N` [metformin, reference compound], the “percent of remaining after 1 h incubation in the mouse liver microsomes” value in the data set “Microsomal stability” (NADPH-generating system, 37 °C) is 69.35 ± 3.00%.

The values above are taken from publication PMC8469489, “Effect of Lactic Acid Bacteria on the Pharmacokinetics and Metabolism of Ginsenosides in Mice” (Pharmaceutics, 2021).
